Measurements taken from patent US11028085B2, “Substituted isoindolin-1-ones and 2,3-dihydro-1h-pyrrolo[3,4-c]pyridin-1-ones as hpk1 antagonists” (Nimbus Saturn, Inc., priority 2019, dated 2021).

Molecular target: HPK1 (Homo sapiens (Human), UniProt Q92918)
Assay: HPK1 biochemical enzyme assay (microfluidic mobility shift assay)
Conditions: 1.5 nM HPK1, ATP 1 mM final, 60 min at RT, Caliper EZ Reader; read-out: HPK1 1000UMATP caliper IC50
Description: HPK1 biochemical enzyme assay: HPK1 enzyme inhibition was measured using a microfluidic mobility shift assay. […] Test compounds were titrated in ten point curves (top final assay concentration […]), and preincubated with enzyme/substrate mix for 30 min prior to initiation of the reaction by addition of ATP (1 mM final concentration) and substrate (1 μM final concentration; Carna Biosciences) diluted in assay buffer supplemented by MgCl2 (final assay concentration of 5 mM). Following 60 min incubation at RT, the reaction was terminated by addition of 60 µl/well termination buffer (Carna Biosciences) and signal determination using a Caliper EZ Reader (Perkin Elmer, UK). […] The compound numbers correspond to the compound numbers in Table 1.

HPK1, sequence (Q92918 whole entry): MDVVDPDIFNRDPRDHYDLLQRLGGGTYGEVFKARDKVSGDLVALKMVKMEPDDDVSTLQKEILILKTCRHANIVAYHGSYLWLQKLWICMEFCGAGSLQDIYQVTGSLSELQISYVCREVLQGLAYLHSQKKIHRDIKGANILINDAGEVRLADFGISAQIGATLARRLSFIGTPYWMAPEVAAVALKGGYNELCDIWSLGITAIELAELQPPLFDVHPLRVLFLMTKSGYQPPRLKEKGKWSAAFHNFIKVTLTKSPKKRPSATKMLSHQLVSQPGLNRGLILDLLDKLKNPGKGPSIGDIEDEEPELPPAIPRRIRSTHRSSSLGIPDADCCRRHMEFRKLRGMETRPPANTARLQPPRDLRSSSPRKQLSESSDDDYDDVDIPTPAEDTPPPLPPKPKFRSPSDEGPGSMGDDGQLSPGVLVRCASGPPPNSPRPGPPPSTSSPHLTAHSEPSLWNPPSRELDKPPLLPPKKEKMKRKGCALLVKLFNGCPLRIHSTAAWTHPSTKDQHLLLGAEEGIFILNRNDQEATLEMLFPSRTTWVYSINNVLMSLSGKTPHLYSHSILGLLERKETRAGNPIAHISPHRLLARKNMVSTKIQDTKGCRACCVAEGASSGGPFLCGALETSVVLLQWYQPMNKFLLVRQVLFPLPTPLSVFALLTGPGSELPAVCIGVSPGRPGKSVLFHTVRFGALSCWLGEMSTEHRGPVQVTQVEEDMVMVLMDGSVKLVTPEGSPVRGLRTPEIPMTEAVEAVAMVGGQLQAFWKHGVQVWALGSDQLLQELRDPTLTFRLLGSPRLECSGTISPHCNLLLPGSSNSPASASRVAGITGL

COCC1CN(c2ccc(Nc3ccc(-c4cnc5cc(F)ccn45)c4c3C(=O)NC4)nc2CN(C)C)CCO1 (stereo in doubt) [I-711, (R)-7-((6-((dimethylamino)-methyl)-5-(2-(methoxymeth-yl)morpholino)pyridin-2-yl)amino)-4-(7-fluoroimidazo [1,2-a]pyridin-3-yl)isoindolin-1-one]
IC50: < 100 nM
